Laboratory results taken from patent US9657064B2, “Cell penetrating peptides” (UNIVERSITE DE GENEVE, priority 2012, dated 2017).

Tests used:
[1] = test system: ovalbumin CD8+ epitope specific immune response; experiment: In vivo vaccination of mice with different CPP-OVA fusion polypeptides, Pentamer staining in blood (Example 5); settings: for Fold increase in proliferation compared to CPP14: 10 nmol s.c. twice at 14 days of interval, with anti-CD40 and poly-IC, relative to CPP14-OVA reference
Description: The experiment was performed as described in Example 3.
Four to eight mice per group were vaccinated twice subcutaneously at 14 days of interval with 10 nmol of fusion polypeptides comprising one of the CPPs indicated in Table 2 fused to the ovalbumin CD8^+ epitope (SEQ ID NO: 3) flanked by the spacers of SEQ ID NO: 11 and SEQ ID NO: 12 at the N-terminal and C-terminal part of the CD8^+ epitope, respectively. Each CPP-OVA fusion polypeptide was injected in PBS with 100 μg anti-CD40. 50 μg poly-IC was injected intramuscularly 7 days after the second vaccination. Immune response was monitored in the blood with a Pentamer staining followed by flow cytometry analysis.
The results are presented in Table 3 as fold increase relative to a CPP-OVA fusion polypeptide of reference comprising CPP14 of SEQ ID NO: 22.

[2] = test system: human astrocytoma cells U251; experiment: In vitro transduction of fluorescein-labeled CPP-OVA fusion polypeptides, flow cytometry; assay type: cell-based; settings: 0.9 μM, 2 h at 37° C., ratio of mean fluorescence index between cells alone and loaded cells
Description: (§1) Transduction into cells was monitored using different CPP-OVA fusion polypeptides comprising CPP1, CPP2, CPP8, or CPP10. Each of these CPPs fused with the immunodominant CD8^+ T cell epitope from ovalbumin were chemically synthesized and labeled with fluorescein. 5.10^5 cells were incubated for 2 h at 37° C. with 0.9 μM of the different fusion polypeptides. The cells tested were human lymphoid cells K562, murine lymphoid cells EL4, human astrocytoma cells U251 and murine astrocytoma cells GL261. The cells were washed in an acid buffer to remove all the membrane bound peptide and stained for viability with Live-Dead Yellow. Analysis was performed by flow cytometry. The index of fluorescence indicates the level of fluorescence above the natural auto-fluorescence of the cells. It is the ratio of the mean fluorescence index measured by flow cytometry between the cells alone and the cells loaded with CPP-OVA fusion polypeptides.

[3] = test system: murine astrocytoma cells GL261; experiment: as above; assay type: cell-based; settings: 0.9 μM, 2 h at 37° C., ratio of mean fluorescence index between cells alone and loaded cells
Description: as §1

[4] = test system: human lymphoid cells K562; experiment: as above; assay type: cell-based; settings: 0.9 μM, 2 h at 37° C., ratio of mean fluorescence index between cells alone and loaded cells
Description: as §1

[5] = test system: murine lymphoid cells EL4; experiment: as above; assay type: cell-based; settings: 0.9 μM, 2 h at 37° C., ratio of mean fluorescence index between cells alone and loaded cells
Description: as §1

[6] = test system: ovalbumin-specific CD8+ T cells; experiment: Vaccination of mice with CPP-OVA fusion polypeptides, multimer staining of splenocytes (Example 3); assay type: in vivo; settings: 2 s.c. vaccinations at 14 days of interval, 20 μg fusion polypeptide + 100 μg anti-CD40, 50 μg poly-IC i.m., PBS control 0.18%
Description: Mice were vaccinated twice sub-cutaneously at 14 days of interval with 20 μg of each CPPs-OVA fusion polypeptides and 100 μg anti-CD40, 50 μg poly-IC was injected intramuscularly 10 days after the boost, the mice were sacrificed and the splenocytes stained with a multimer and anti-CD8. Negative control with PBS (A); CPP1-OVA (B); CPP2-OVA (C).
To test the capacity of the polypeptides corresponding to constructs 1 and 2 to stimulate antigen-specific CD8^+ T cells in more stringent conditions, they were tested in vivo in a vaccination protocol (FIG. 2). In order to elicit an in vivo response, the polypeptide vaccine must be taken up by naturally present antigen presenting cells in the injected animal, and stimulation of polyclonal T cells must be highly efficient if ovalbumin-specific T cells are to be detected ex vivo. The read-out for these experiments was flow cytometry of splenocytes, using MHC-peptide multimers to detect ovalbumin-specific CD8^+ T cells.

## QHYREVAAAKSSEND [CPP8]
[1]
  Fold increase in proliferation compared to CPP14: 1.28
[2]
  index of fluorescence: 2
[3]
  index of fluorescence: 1.4
[4]
  index of fluorescence: 1.9
[5]
  index of fluorescence: 2.5

## REVAAAKSSENDRLRLLLK [CPP10]
[1]
  Fold increase in proliferation compared to CPP14: 2.17
[2]
  index of fluorescence: 4
[3]
  index of fluorescence: 1.9
[4]
  index of fluorescence: 3.7
[5]
  index of fluorescence: 4

## KRYKNRVASRKSRAKFKQLLQHYREVAAAK [CPP2]
[1]
  Fold increase in proliferation compared to CPP14: 1.41
[2]
  index of fluorescence: 25.1
[3]
  index of fluorescence: 20.8
[4]
  index of fluorescence: 15
[5]
  index of fluorescence: 57.7

## KRYKNRVASRKSRAKFK (CCP1) [CPP1]
[1]
  Fold increase in proliferation compared to CPP14: 1.74
[2]
  index of fluorescence: 4.5
[3]
  index of fluorescence: 2.4
[4]
  index of fluorescence: 3
[5]
  index of fluorescence: 4.8

## KRYKNRVASRKSRAKFKQLLQHYREVAAAKEQLESIINFEKLTEWT [construct 2]
[6]
  CD8+ T cells multimer positive (ovalbumin-specific CD8+ T cells): over 1%

## KRYKNRVA [CPP7, 8-amino acid-long fragment of Zebra, positions 178 to 185; negative control, tested as CPP-OVA fusion, reference compound]
[1]; 10 nmol s.c. twice
  immunogenic potential compared to the reference fusion polypeptide comprising CPP14: lower immunogenic potential
[1]
  Fold increase in proliferation compared to CPP14: 0.65
